Laboratory results from patent US10076519B2 (CYTOKINETICS, INC., priority 2010, dated 2018).

Tested on: rabbit skeletal myofibrils (fast skeletal myofibrils)
Assay: Activation of fast skeletal myofibrils (PUMA assay, PK/LDH-coupled ATPase at pCa25)
Type: biochemical
Details: AC1.4 determined according to the procedure of Example 39; reported as class symbols
How it was run: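 Detergent-washed rabbit psoas myofibrils (~90% fast fibres, calcium-regulated) assayed at calcium giving 25% of maximal ATPase rate (pCa25). ADP turnover coupled via pyruvate kinase/lactate dehydrogenase to NADH oxidation, read at 340 nm. Buffer 12 mM PIPES, 2 mM MgCl2, 1 mM DTT, pH 6.8; AC1.4 values derived.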

Mean AC1.4, C (C=10-20 uM):
CCc1ccc(NCC(C)(C)c2ccc(F)cc2)nn1 [(6-ethylpyridazin-3-yl)[2-(4-fluorophenyl)-2-methylpropyl]amine]
CC(C)(CNc1ccc(-c2ccc3c(=O)[nH]c(N)nc3c2)nn1)c1ccc(F)cc1

Mean AC1.4, D (D=>20 uM):
N#Cc1cccc(-c2ccc(NCC3(C(=O)O)CCC3)nn2)c1 [1-({[6-(3-cyanophenyl)pyridazin-3-yl]amino}methyl)cyclobutane-carboxylic acid]
CC(C)(CNc1ccc(C(=O)N2CCC(C(N)=O)CC2)nn1)c1ccc(F)cc1 [1-[(6-{[2-(4-fluorophenyl)-2-methylpropyl]amino}pyridazin-3-yl)carbonyl]piperidine-4-carboxamide]
NC(=O)c1cccc(-c2ccc(NCC3(C(=O)O)CCC3)nn2)c1 [1-({[6-(3-carbamoylphenyl)pyridazin-3-yl]amino}methyl)cyclobutane-carboxylic acid]

Mean AC1.4, B (B=1-10 uM):
CC(C)(CNc1ccc(-c2ccc3[nH]nc(C(O)CO)c3c2)nn1)c1ccc(F)cc1 (stereo not drawn) [1-[5-(6-{[2-(4-fluorophenyl)-2-methylpropyl]amino}pyridazin-3-yl)-1H-indazol-3-yl]ethane-1,2-diol]
CC(=O)Nc1n[nH]c2ccc(-c3ccc(NCC4(c5ncccc5F)CCC4)nn3)cc12
CS(=O)(=O)Nc1cccc(-c2ccc(NCC3(c4ncccc4F)CCC3)nn2)c1
CC(C)(CNc1ccc(-c2ccc3[nH]ncc3c2)nn1)c1ncccc1F [(6-(1H-indazol-5-yl)pyridazin-3-yl)[2-(3-fluoro(2-pyridyl))-2-methylpropyl]amine]
COc1ccc(-c2ccc(NCC(C)(C)c3ccc(F)cc3)nn2)nc1 [[2-(4-fluorophenyl)-2-methylpropyl][6-(5-methoxy(2-pyridyl))pyridazin-3-yl]amine]
CC(C)(CNc1ccc(-c2cccc(C(N)=O)c2)nn1)c1ccc(Cl)cc1 [3-(6-{[2-(4-chlorophenyl)-2-methylpropyl]amino}pyridazin-3-yl)benzamide]

Mean AC1.4, A (A=<1 uM):
Fc1cccnc1C1(CNc2ccc(-c3ccc4cn[nH]c4c3)nn2)CCC1 [(6-(1H-indazol-6-yl)pyridazin-3-yl){[(3-fluoro(2-pyridyl))cyclobutyl]methyl}amine]
CC(C)(CNc1ccc(-c2cnc3cc[nH]c3c2)nn1)c1ccc(F)cc1 [[2-(4-fluorophenyl)-2-methylpropyl](6-pyrrolo[3,2-b]pyridin-6-ylpyridazin-3-yl)amine]
COC(=O)Nc1n[nH]c2ccc(-c3ccc(NCC(C)(C)c4ccc(F)cc4)nn3)cc12 [N-[5-(6-{[2-(4-fluorophenyl)-2-methylpropyl]amino}pyridazin-3-yl)(1H-indazol-3-yl)]methoxycarboxamide]
CC(C)(CNc1ccc(-c2cccc(Cl)c2)nn1)c1ccc(F)cc1 [[6-(3-chlorophenyl)pyridazin-3-yl][2-(4-fluorophenyl)-2-methylpropyl]amine]
Nc1n[nH]c2ccc(-c3ccc(NCC4(c5ccc(F)cc5)CC4)nn3)cc12 [[6-(3-amino(1H-indazol-5-yl))pyridazin-3-yl]{[(4-fluorophenyl)cyclopropyl]meth-yl}amine]

Same assay, conditions: median AC1.4 class, procedure of Example 39

Mean AC1.4, B (B=1-10 uM):
Fc1cccnc1C1(Nc2ccc(-c3ccc4nc[nH]c4c3)nn2)CCC1 [(6-benzimidazol-6-ylpyridazin-3-yl)[(3-fluoro(2-pyridyl))cyclobutyl]amine]
COc1cc(-c2ccc(NC3(c4ccc(F)cc4)CCC3)nn2)ccn1 [[(4-fluorophenyl)cyclobutyl][6-(2-methoxy(4-pyridyl))pyridazin-3-yl]amine]
N#Cc1cccc(C2(Nc3ccc(-c4cc(C(N)=O)ccc4F)nn3)CCC2)n1
O=c1[nH]nc(-c2cnc(-c3ccc(NCC4(c5ncccc5F)CCC4)nn3)s2)o1 [5-{2-[6-({[(3-fluoro-2-pyridyl)cyclobutyl]methyl}ami-no)pyridazin-3-yl]-1,3-thiazol-5-yl}-1,3,4-oxadiazolin-2-one]
NCc1cnc(-c2ccc(NCC3(c4ncccc4F)CCC3)nn2)s1 [{6-[5-(aminomethyl)(1,3-thiazol-2-yl)]pyridazin-3-yl}{[(3-fluoro(2-pyridyl))cyclobutyl]methyl}amine]
NC(=O)c1cnc(-c2ccc(NC3(c4ccc(F)cc4)CCC3)nn2)s1 [2-(6-{[(4-fluorophenyl)cyclobutyl]ami-no}pyridazin-3-yl)-1,3-thiazole-5-carboxamide]
CC(C)(CNc1ccc(-c2cccc(C#N)c2)nn1)c1ncccc1Cl [3-(6-{[2-(3-chloro(2-pyridyl))-2-methylpropyl]amino}pyridazin-3-yl)benzenecarbonitrile]

Mean AC1.4, D (D=>20 uM):
COC(=O)c1coc(-c2ccc(NCC3(c4ncccc4F)CCC3)nn2)n1
NC(=O)c1ccnc(C2(Nc3ccc(-c4cc(C(N)=O)ccc4F)nn3)CCC2)c1 [2-({[6-(3-carbamoyl-6-fluorophenyl)pyridazin-3-yl]amino}cyclobutyl)pyridine-4-carboxamide]
O=C(O)c1cc(-c2ccc(NCC3(c4ncccc4F)CCC3)nn2)on1

Mean AC1.4, A (A=<1 uM):
(2S)-2-amino-N-({2-[6-({[(3- fluoro(2- pyridyl))cyclobutyl]methyl}ami- no)pyridazin-3-yl](1,3-thiazol-5- yl)}methyl)-3-hydroxy-3- methylbutanamide
NCC(F)(F)CNC(=O)c1cnc(-c2ccc(NCC3(c4ncccc4F)CCC3)nn2)s1 [N-(3-amino-2,2-difluoropropyl){2-[6-({[(3-fluoro(2-pyridyl))cyclobutyl]methyl}ami-no)pyridazin-3-yl](1,3-thiazol-5-yl)}carboxamide]
C[C@@H](N)C(=O)NCc1cnc(-c2ccc(NCC3(c4ncccc4F)CCC3)nn2)s1 [(2R)-2-amino-N-({2-[6-({[(3-fluoro(2-pyridyl))cyclobutyl]methyl}ami-no)pyridazin-3-yl](1,3-thiazol-5-yl)}methyl)propanamide]
O=C(NCc1cnc(-c2ccc(NCC3(c4ncccc4F)CCC3)nn2)s1)c1cnc[nH]1 [N-({2-[6-({[(3-fluoro(2-pyridyl))cyclobutyl]methyl}ami-no)pyridazin-3-yl](1,3-thiazol-5-yl)}methyl)imidazol-5-ylcarboxamide]
O=C(NCc1cnc(-c2ccc(NCC3(c4ncccc4F)CCC3)nn2)s1)C1(NCc2ccccc2)COC1 [N-({2-[6-({[(3-fluoro(2-pyridyl))cyclobutyl]methyl}ami-no)pyridazin-3-yl](1,3-thiazol-5-yl)}methyl){3-[benzylamino]oxetan-3-yl}carboxamide]
Fc1cccnc1C1(CNc2ccc(-c3cccc(-c4nn[nH]n4)c3)nn2)CCC1 [[6-(3-(2H-1,2,3,4-tetraazol-5-yl)phenyl)pyridazin-3-yl]{[(3-fluoro(2-pyridyl))cyclobutyl]methyl}amine]

Mean AC1.4, C (C=10-20 uM):
CC(=O)c1cnc(-c2ccc(NCC3(c4ncccc4F)CCC3)nn2)s1 [1-{2-[6-({[(3-fluoro-2-pyridyl)cyclobutyl]methyl}ami-no)pyridazin-3-yl]-1,3-thiazol-5-yl}ethan-1-one]
N#Cc1ncccc1-c1ccc(NCC2(c3ncccc3F)CCC2)nn1
Fc1cccnc1C1(Nc2ccc(C3CCCCC3)nn2)CCC1 [(6-cyclohexylpyridazin-3-yl)[(3-fluoro(2-pyridyl))cyclobutyl]amine]

Same assay, conditions: median AC1.4 reported as class; procedure of Example 39

Mean AC1.4, A (A=<1 uM):
CNC(=O)c1ccc(F)c(-c2ccc(NCC3(c4ncccc4F)CCC3)nn2)c1 [{4-fluoro-3-[6-({[(3-fluoro(2-pyridyl))cyclobutyl]methyl}ami-no)pyridazin-3-yl]phenyl}-N-methylcarboxamide]
O=C(NC1CCC1)c1ccc(F)c(-c2ccc(NC[C@]3(c4ncccc4F)C[C@H](F)C3)nn2)c1 [N-cyclobutyl{4-fluoro-3-[6-({[3-fluoro-1-(3-fluoro(2-pyridyl))cyclobutyl]methyl}ami-no)pyridazin-3-yl]phenyl}carboxamide]

Mean AC1.4, C (C=10-20 uM):
Cc1cc(NCC2(c3ncccc3F)CCC2)nnc1-c1cccc(C#N)c1 [3-[6-({[(3-fluoro(2-pyridyl))cyclobutyl]methyl}ami-no)-4-methylpyridazin-3-yl]benzenecarbonitrile]

Mean AC1.4, D (D=>20 uM):
CC(=O)N1CCN(Cc2cnc(-c3ccc(NCC4(c5ncccc5F)CCC4)nn3)s2)CC1 [1-acetyl-4-({2-[6-({[(3-fluoro(2-pyridyl))cyclobutyl]methyl}ami-no)pyridazin-3-yl](1,3-thiazol-5-yl)}methyl)piperazine]
CC(=O)N1CCc2nc(-c3ccc(NCC4(c5ncccc5F)CCC4)nn3)sc2C1 [5-acetyl-2-[6-({[(3-fluoro(2-pyridyl))cyclobutyl]methyl}ami-no)pyridazin-3-yl]-4,5,6,7-tetrahydro-1,3-thiazolo[5,4-c]pyridine]
NC(=O)c1ccc(O)c(-c2ccc(N3CC4(c5ncccc5F)CC3C4)nn2)c1 [3-{6-[4-(3-fluoro(2-pyridyl))-2-azabicyclo[2.1.1]hex-2-yl]pyridazin-3-yl}-4-hydroxybenzamide]

Mean AC1.4, B (B=1-10 uM):
CNC(=O)Cc1cnc(-c2nnc(NCC3(c4ncccc4F)CCC3)cc2C)s1 [2-{2-[6-({[(3-fluoro(2-pyridyl))cyclobutyl]methyl}amino)-4-methylpyridazin-3-yl](1,3-thiazol-5-yl)}-N-methylacetamide]
